US20150284362A1, “CARBAZOLE-CONTAINING AMIDES, CARBAMATES, AND UREAS AS CRYPTOCHROME MODULATORS” (ReSet Therapeutics, Inc., priority 2014, published 2015)

What was measured:
db/db mice = assay: Single dose at peak or nadir of clock gene expression, OGTT in db/db mouse model of type II diabetes; format: in vivo; conditions: single dose 50 mg/kg PO at peak (ZT0) of Cry1 and Bmal1 expression
Description: Mice were split into two study arms, to be dosed at either the peak or nadir of Cry1 and Bmal1 gene expression. […] Mice dosed at ZT10 were fasted beginning at 8:30 am in the same manner.
(§1) Significance was accepted when p<0.05.

[1] = tested on: core clock gene mRNAs in liver; assay: 24 hour gene expression study, liver mRNA by RT-qPCR, Balb/c mice; format: in vivo, mouse; conditions: 50 mg/kg PO BID, 7 doses
Procedure: E.Z.N.A.® HP Total RNA Isolation Kits (R6812-01 and the protocol described in the Manual, Revised 2010) were utilized to prepare and isolate RNA from the liver samples. To prepare the RNA samples, 10-30 mg of sample was removed from RNA-Later and placed in a 1.5 ml microfuge tube. GTC lysis buffer (700 μl) was added to the tissue, which was homogenized with a rotor-stator homogenizer (e.g. Tissue-Tearor, Model #985370 BioSpec Products with 4.5 mm probe, Cat. #985370-04), and then centrifuged at full speed (≧13,000×g) for 5 minutes. The cleared supernatant was transferred by pipetting to a DNA Clearance Column Pre-inserted in a 2 mL Collection Tube. The assembled column was centrifuged at 13,000×g for 1 minute, and the flow-through was saved. An equal volume (700 μl) of 70% ethanol was added to the lysate and mixed. The sample was then applied to a HiBind RNA spin column placed into a 2 ml collection tube, which was centrifuged at 10,000×g for 60 seconds at room temperature. RNA Wash Buffer I (250 μl) was added by pipetting directly onto a new HiBind RNA column inserted in a 2 ml collection tube. The assembled column was centrifuged at 10,000×g for 60 seconds. The RNA column was placed into a new 2 ml collection tube. DNase I stock solution is pipetted (75 μl) directly onto the surface of the HiBind RNA resin in each column (Using DNAse Digestion with RNase Free DNase Set (E1091): for each HiBind RNA column, the DNase I stock solution was prepared as followed: E.Z.N.A.® DNase I Digestion Buffer 73.5 μl, RNase Free DNase I (20 Kunitz/μl) 1.5 μl=Total Volume 75 μl.). The column with bound RNA was incubated at room temperature (25-30° C.) for 15 minutes. RNA Wash Buffer I (500 μl) was added to the column and placed on a bench top for 2 minutes. After centrifuging at 10,000×g for 60 seconds, discarding the flow-through, 500 μl of RNA Wash Buffer II was added and centrifuged at 10,000×g for 60 seconds. Another 500 μl of RNA Wash Buffer II was added and the column assembly was centrifuged at 10,000×g for 60 seconds. The column was centrifuged for 2 minutes at maximum speed to completely dry the HiBind matrix. […]
RediPlate 96 RiboGreen RNA Quantification Kit (Invitrogen) RediPlate standard curve was prepared by transferring 20 μl reconstituted RNA standard to a RediPlate well reconstituted in 180 μl RediPlate TE buffer. […] After transferring 5 μl to RediPlate well reconstituted in 195 μl TE buffer and incubating 10 min. at RT, Fluorescence Intensity of wells with standards and samples were read in a Tecan M200 with Excitation set at 480 nm and Emission set at 520 nm with the gain set to ˜70%. […] A standard curve was generated in GraphPad Prism and sample readings (unknowns) are interpolated via linear regression analysis, and the RNA sample concentrations were calculated. […]

C57/Bl6J DIO mice = assay: 7 day dosing in diet-induced obesity (DIO) mouse model of type II diabetes; format: in vivo; conditions: 100 mg/kg PO QD 7 days
Description: Male C57/Bl6J DIO mice were obtained from The Jackson Laboratory (Sacramento, Calif.). […] Animals were accustomed to these conditions for at least 2 weeks before experimentation and used at approximately 24 weeks of age.
as §1

O=C1NCCN1CC(O)Cn1c2ccc(F)cc2c2cc(F)ccc21 (stereo not drawn) [Compound 72, 1-(3-(3,6-difluoro-9H-carbazol-9-yl)-2-hydroxypropyl)imidazolidin-2-one]
effect on OGTT measurement (db/db mice): apparent effect
Bmal1 mRNA in liver ([1]; at ZT8 and 32 hours after ZT0 vs vehicle): substantially increased
Per2 mRNA in liver ([1]; over 24 hours vs vehicle): suppressed
Cry1 mRNA in liver ([1]; vs vehicle): suppressed during its peak of expression during the dark period
Cry2 mRNA in liver (daytime peak) ([1]; vs vehicle): strongly attenuated
OGTT glucose vs vehicle control group (C57/Bl6J DIO mice): much lower than the vehicle control group
